Values of other authors as cited in PubChem BioAssay AID1259409 (Chemical Carcinogenesis Research Information System (CCRIS), 2018).

System: rodent chemically induced tumor inhibition, incidence and multiplicity
Assay: CCRIS tumor inhibitor studies
Conditions: Route [Inhibitor]: ORAL

For `O=[Se](O)O`, the “tumour outcome (control, treated, inhibition, significance)” value (Carcinogen: N-METHYL-N-NITROSOUREA, 684-93-5, Dose [Inhibitor]: 5 MG IN DIET DAILY STARTING AT AGE 5 WK 2 WK PRIOR TO FIRST CARCINOGEN TREATMENT AND CONTINUING FOR DURATION OF STUDY (S, Species: HAMSTER, Strain/Sex: SYRIAN/MALE, Target Tissue: Type of Lesion: TRACHEA: NEOPLASM, Dose [Carcinogen]: 0.5% SOLUTION (PH 5) 1/WK FOR 12 WK, Promoter: NONE USED) is listed as 11/34 (32%), 11/31 (35%), -9%, not significant, the “tumour outcome (control, treated, inhibition, significance)” value (Carcinogen: N-METHYL-N-NITROSOUREA, 684-93-5, Dose [Inhibitor]: 5 MG/KG IN DIET DAILY STARTING 7 D AFTER CARCINOGEN TREATMENT AND CONTINUING FOR DURATION OF STUDY (STUDY DURATION: 90 D, Species: RAT, Strain/Sex: SPRAGUE-DAWLEY/FEMALE, Target Tissue: Type of Lesion: MAMMARY GLAND: ADENOCARCINOMA, Dose [Carcinogen]: 50 MG/KG BW IN 0.9% SALINE ONCE AT 50 D OF AGE, Promoter: NONE) is listed as 95%, 85%, 11%, not calculated and the “tumour outcome (control, treated, inhibition, significance)” value (Carcinogen: N-NITROSOBIS(2-OXOPROPYL)AMINE, 60599-38-4, Dose [Inhibitor]: 0, 4 PPM IN DRINKING WATER BEGINNING POST CARCINOGEN TREATMENT AND CONTINUING FOR 37 WK (STUDY DURATION: 40 WK), Species: HAMSTER, Strain/Sex: SYRIAN/FEMALE, Target Tissue: Type of Lesion: PANCREAS: ADENOCARCINOMA, Dose [Carcinogen]: 10 MG/KG 1/WK FOR 3 WK, Promoter: NONE USED) is listed as 11/28 (39%), 9/30 (30%), 23%, not calculated. The “tumour outcome (control, treated, inhibition, significance)” value (Carcinogen: NITROSOMETHYL-3-CARBOXYPROPYLAMINE, 61445-55-4, Dose [Inhibitor]: 0, 0.35 PPM IN DIET BEGINNING 1 WK PRIOR TO CARCINOGEN DOSE AND CONTINUED FOR DURATION OF STUDY (STUDY DURATION: LIFETIM, Species: RAT, Strain/Sex: F344/FEMALE, Target Tissue: Type of Lesion: BLADDER: TUMORS, Dose [Carcinogen]: 20 ML OF A 600 MG/L SOLUTION IN DRINKING WATER 5 D/WK FOR 28 WK, Promoter: NONE USED) was 18/20 (90%), 18/20 (90%), 0%, not significant, the “tumour outcome (control, treated, inhibition, significance)” value (Carcinogen: NITROSOMETHYL-3-CARBOXYPROPYLAMINE, 61445-55-4, Dose [Inhibitor]: 0, 0.7 PPM IN DIET BEGINNING 1 WK PRIOR TO CARCINOGEN DOSE AND CONTINUED FOR DURATION OF STUDY (STUDY DURATION: LIFETIME, Species: RAT, Strain/Sex: F344/FEMALE, Target Tissue: Type of Lesion: BLADDER: TUMORS, Dose [Carcinogen]: 20 ML OF A 600 MG/L SOLUTION IN DRINKING WATER 5 D/WK FOR 28 WK, Promoter: NONE USED) was 18/20 (90%), 20/20 (100%), -11%, not significant and the “tumour outcome (control, treated, inhibition, significance)” value (Carcinogen: NITROSOMETHYL-3-CARBOXYPROPYLAMINE, 61445-55-4, Dose [Inhibitor]: 0, 1.4 PPM IN DIET BEGINNING 1 WK PRIOR TO CARCINOGEN DOSE AND CONTINUED FOR DURATION OF STUDY (STUDY DURATION: LIFETIME, Species: RAT, Strain/Sex: F344/FEMALE, Target Tissue: Type of Lesion: BLADDER: TUMORS, Dose [Carcinogen]: 20 ML OF A 600 MG/L SOLUTION IN DRINKING WATER 5 D/WK FOR 28 WK, Promoter: NONE USED) was 18/20 (90%), 20/20 (100%), -11%, not significant. For the same compound, the “tumour outcome (control, treated, inhibition, significance)” value (Carcinogen: NITROSOMETHYL-3-CARBOXYPROPYLAMINE, 61445-55-4, Dose [Inhibitor]: 0, 2.1 PPM IN DIET BEGINNING 1 WK PRIOR TO CARCINOGEN DOSE AND CONTINUED FOR DURATION OF STUDY (STUDY DURATION: LIFETIME, Species: RAT, Strain/Sex: F344/FEMALE, Target Tissue: Type of Lesion: BLADDER: TUMORS, Dose [Carcinogen]: 20 ML OF A 600 MG/L SOLUTION IN DRINKING WATER 5 D/WK FOR 28 WK, Promoter: NONE USED) was 18/20 (90%), 17/20 (85%), 6%, not significant, the “tumour outcome (control, treated, inhibition, significance)” value (Carcinogen: NITROSOMETHYLCYCLOHEXYLAMINE, 5432-28-0, Dose [Inhibitor]: 0, 0.35 PPM IN DIET BEGINNING 1 WK PRIOR TO CARCINOGEN DOSE AND CONTINUED FOR DURATION OF STUDY (STUDY DURATION: LIFETIM, Species: RAT, Strain/Sex: F344/FEMALE, Target Tissue: Type of Lesion: ESOPHAGUS: TUMORS, Dose [Carcinogen]: 20 ML OF A 5 MG/L SOLUTION IN DRINKING WATER 5 D/WK FOR 28 WK, Promoter: NONE USED) was 17/20 (85%), 17/20 (85%), 0%, not significant and the “tumour outcome (control, treated, inhibition, significance)” value (Carcinogen: NITROSOMETHYLCYCLOHEXYLAMINE, 5432-28-0, Dose [Inhibitor]: 0, 0.7 PPM IN DIET BEGINNING 1 WK PRIOR TO CARCINOGEN DOSE AND CONTINUED FOR DURATION OF STUDY (STUDY DURATION: LIFETIME, Species: RAT, Strain/Sex: F344/FEMALE, Target Tissue: Type of Lesion: ESOPHAGUS: TUMORS, Dose [Carcinogen]: 20 ML OF A 5 MG/L SOLUTION IN DRINKING WATER 5 D/WK FOR 28 WK, Promoter: NONE USED) was 17/20 (85%), 17/20 (85%), 0%. The “tumour outcome (control, treated, inhibition, significance)” value (Carcinogen: NITROSOMETHYLCYCLOHEXYLAMINE, 5432-28-0, Dose [Inhibitor]: 0, 1.4 PPM IN DIET BEGINNING 1 WK PRIOR TO CARCINOGEN DOSE AND CONTINUED FOR DURATION OF STUDY (STUDY DURATION: LIFETIME, Species: RAT, Strain/Sex: F344/FEMALE, Target Tissue: Type of Lesion: ESOPHAGUS: TUMORS, Dose [Carcinogen]: 20 ML OF A 5 MG/L SOLUTION IN DRINKING WATER 5 D/WK FOR 28 WK, Promoter: NONE USED) was 17/20 (85%), 16/20 (80%), 6%, not significant, the “tumour outcome (control, treated, inhibition, significance)” value (Carcinogen: NITROSOMETHYLCYCLOHEXYLAMINE, 5432-28-0, Dose [Inhibitor]: 0, 2.1 PPM IN DIET BEGINNING 1 WK PRIOR TO CARCINOGEN DOSE AND CONTINUED FOR DURATION OF STUDY (STUDY DURATION: LIFETIME, Species: RAT, Strain/Sex: F344/FEMALE, Target Tissue: Type of Lesion: ESOPHAGUS: TUMORS, Dose [Carcinogen]: 20 ML OF A 5 MG/L SOLUTION IN DRINKING WATER 5 D/WK FOR 28 WK, Promoter: NONE USED) was 17/20 (85%), 18/20 (90%), -6%, not significant and the “tumour outcome (control, treated, inhibition, significance)” value (Carcinogen: NONE USED, Dose [Inhibitor]: 0.5 PPM IN DIET DAILY STARTING AT AGE 6 WK AND CONTINUING FOR DURATION OF STUDY (STUDY DURATION: 13 MO), Species: MOUSE, Strain/Sex: BALB/FEMALE, Target Tissue: Type of Lesion: MAMMARY GLAND: ADENOCARCINOMA, Promoter: NONE USED) was 15/30 (50%), 8/30 (27%), 46%, p<0.05. For the same compound, the “tumour outcome (control, treated, inhibition, significance)” value (Carcinogen: NONE USED, Dose [Inhibitor]: 2 PPM IN DIET DAILY STARTING AT AGE 6 WK AND CONTINUING FOR DURATION OF STUDY (STUDY DURATION: 13 MO), Species: MOUSE, Strain/Sex: BALB/FEMALE, Target Tissue: Type of Lesion: MAMMARY GLAND: ADENOCARCINOMA, Promoter: NONE USED) was 15/30 (50%), 6/30 (20%), 60%, p<0.05, the outcome (Carcinogen: UV-B IRRADIATION, Dose [Inhibitor]: 0, 0.5 MG/KG DIET FOR 29 WK BEGINNING 1 WK PRIOR TO CARCINOGEN TREATMENT (STUDY DURATION: 29 WK), Species: MOUSE, Strain/Sex: SKH:HR-1/FEMALE, Target Tissue: Type of Lesion: SKIN: TUMOR, Dose [Carcinogen]: 90 MJ/CM2 3/WK FOR 20 WK, Promoter: NONE USED) was 29, 17, 41%, p<0.05 and the “tumour outcome (control, treated, inhibition, significance)” value (Dose [Inhibitor]: 0, 3 PPM IN DRINKING WATER AD LIBITUM FOR DURATION OF STUDY (STUDY DURATION: 79 WK), Species: RAT, Strain/Sex: WISTAR/MALE, Target Tissue: Type of Lesion: LIVER: CARCINOMA, Dose [Carcinogen]: 126 UG/WK IN DRINKING WATER FOR 27 WK, Promoter: NONE USED) was 61%, 0%, 100%, not calculated. For the same compound, the “tumour outcome (control, treated, inhibition, significance)” value (Dose [Inhibitor]: 0, 6 PPM IN DRINKING WATER AD LIBITUM FOR DURATION OF STUDY (STUDY DURATION: 79 WK), Species: RAT, Strain/Sex: WISTAR/MALE, Target Tissue: Type of Lesion: LIVER: CARCINOMA, Dose [Carcinogen]: 126 UG/WK IN DRINKING WATER FOR 27 WK, Promoter: NONE USED) was 61%, 0%, 100%, not calculated.
